In assay [1] the test system is L6-myotubes. Description: Glucose uptake in differentiated L6-myotubes (3H-2-deoxyglucose), compared to isoproterenol. The assay is classed as cell-based. As to conditions: agonist 1×10^−5 M, 50 nM 3H-2-deoxyglucose; for Emax at 10 µM: read-out: Biological example 1: glucose uptake, activity compared to that of isoproterenol. The method, boiled down:
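Serum-starved differentiated L6 myotubes stimulated with agonist at 1×10^−5 M for 1 h 40 min, re-dosed in glucose-free medium for 20 min, then given 50 nM ^3H-2-deoxyglucose for 10 min. Uptake read by β-counting of NaOH lysates; activity expressed relative to isoproterenol.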

Assay [2] has as its system L6-myotubes. Briefly: Measurement of intracellular cAMP levels in differentiated L6 cells (alpha screen cAMP kit), compared to isoproterenol. The assay is classed as cell-based. The note with it: agonist 1×10^−5 M, 15 min; for Emax at 10 µM: Rattus norvegicus, L6, 0.25 h, read-out: Biological example 2: intracellular cAMP levels, activity compared to that of isoproterenol. The method, boiled down: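 L6 myoblasts were differentiated into myotubes over 7 days in 2% FBS, then serum-starved overnight. Agonist at 1×10^−5 M final was applied for 15 min in HBSS with 1% BSA, 5 mM HEPES and 1 mM IBMX, pH 7.4. After ethanol extraction and lysis, cAMP was quantified by AlphaScreen, with activity expressed relative to isoproterenol.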
(cAMP levels reflect the balance of adenylyl cyclase and phosphodiesterase activity.)

Structures can show the parent of a compound that is named as a salt. Where only a bound is given, the exact number is not on record here.

Take `CC(C)(C[C@H]1CC[C@@H](NS(C)(=O)=O)CC1)NC[C@H](O)c1cccc(C#N)n1` [Example 142, N-((1R,4s)-4-(2-(((S)-2-(6-Cyanopyridin-2-yl)-2-hydroxyethyl)amino)-2-methylpropyl)cyclohexyl)methanesulfonamide]: the “Biological example 1: glucose uptake, activity compared to that of isoproterenol” value with L6-myotubes [1] was “+ + +”. The Emax at 10 µM in the assay with L6-myotubes [2] is less than 25%.
For `CC(C)(C[C@H]1CC[C@@H](N)CC1)NC[C@H](O)c1cccc(F)c1` [Example 163, (R)-2-((1-((1s,4S)-4-Aminocyclohexyl)-2-methylpropan-2-yl)amino)-1-(3-fluorophenyl)ethan-1-ol] the same measures were “+ + +” and less than 25%.
As for `CC(C)(CC[C@H]1CC[C@@H](C(=O)O)CC1)NC[C@H](O)c1cncc(F)c1` [Example 114, (1S,4s)-4-(3-(((R)-2-(5-Fluoropyridin-3-yl)-2-hydroxyethyl)amino)-3-methylbutyl)cyclohexane-1-carboxylic acid], in the assay on L6-myotubes [1], the “Biological example 1: glucose uptake, activity compared to that of isoproterenol” value is “+ + +”. In the assay with L6-myotubes [2], the Emax at 10 µM was less than 25%.
Consider `CC(C)(NC[C@H](O)c1cncc(F)c1)[C@H]1CC[C@@H](C(=O)O)CC1` [Example 97, (1S,4s)-4-(2-(((R)-2-(5-Fluoropyridin-3-yl)-2-hydroxyethyl)amino)propan-2-yl)cyclohexane-1-carboxylic acid], for which the Emax at 10 µM in the assay with L6-myotubes [1] and in the assay on L6-myotubes [2] was 25 to 50% throughout.
Consider `CS(=O)(=O)N[C@H]1CC[C@@H](CNC[C@H](O)c2cncc(F)c2)CC1` [Example 78, N-((1S,4s)-4-((((R)-2-(5-Fluoropyridin-3-yl)-2-hydroxyethyl)amino)methyl)-cyclohexyl)methanesulfonamide], for which the “Biological example 1: glucose uptake, activity compared to that of isoproterenol” value with L6-myotubes [1] is listed as “+ +”. Further, the Emax at 10 µM in the assay on L6-myotubes [2] was less than 25%.
For `Cc1ncccc1[C@@H](O)CNC(C)(C)C[C@H]1CC[C@@H](NS(C)(=O)=O)CC1` [Example 144, N-((1S,4s)-4-(2-(((R)-2-Hydroxy-2-(2-methylpyridin-3-yl)ethyl)amino)-2-methylpropyl)cyclohexyl)methanesulfonamide dihydrochloride] the same measures were “+ +” and less than 25%.
As for `CC(=O)N(C)[C@H]1CC[C@@H](CC(C)(C)NC[C@H](O)c2cncc(F)c2)CC1.Cl` [Example 184, N-((1S,4s)-4-(2-(((R)-2-(5-Fluoropyridin-3-yl)-2-hydroxyethyl)amino)-2-methylpropyl)cyclohexyl)-N-methylacetamide], the “Biological example 1: glucose uptake, activity compared to that of isoproterenol” value in the assay with L6-myotubes [1] is on record as “+ + +”. Further, the Emax at 10 µM in the assay with L6-myotubes [2] is less than 25%.
Regarding `CC(C)(CC[C@H]1CC[C@@H](C(=O)O)CC1)NC[C@H](O)c1cccc(F)c1` [Example 113, (1S,4s)-4-(3-(((R)-2-(3-Fluorophenyl)-2-hydroxyethyl)amino)-3-methyl-butyl)cyclohexane-1-carboxylic acid], the Emax at 10 µM is 25 to 50% in the assay with L6-myotubes [1] and less than 25% in the assay on L6-myotubes [2].
Consider `CC(C)(C[C@H]1CC[C@H](NC(=O)C2CCC2)CC1)NC[C@H](O)c1cccc(F)c1.Cl` [Example 155, N-((1R,4r)-4-(2-(((R)-2-(3-Fluorophenyl)-2-hydroxyethyl)amino)-2-methylpropyl)cyclohexyl)cyclobutanecarboxamide hydrochloride], for which the “Biological example 1: glucose uptake, activity compared to that of isoproterenol” value with L6-myotubes [1] was “+ + +”. For the same compound, the “Biological example 2: intracellular cAMP levels, activity compared to that of isoproterenol” value in the assay on L6-myotubes [2] was “+ +”.
`CC(=O)N[C@H]1CC[C@@H](CC(C)(C)NC[C@H](O)c2cccc(F)c2)CC1` [Example 164, N-((1S,4s)-4-(2-(((R)-2-(3-Fluorophenyl)-2-hydroxyethyl)amino)-2-methylpropyl)cyclohexyl)acetamide]: in the assay with L6-myotubes [1], the “Biological example 1: glucose uptake, activity compared to that of isoproterenol” value is on record as “+ + +”. In addition, the Emax at 10 µM in the assay with L6-myotubes [2] is less than 25%.
For `CC(C)(C[C@H]1CC[C@H](NC(=O)C(C)(C)C)CC1)NC[C@H](O)c1cccc(F)c1.Cl` [Example 154, N-((1R,4r)-4-(2-(((R)-2-(3-Fluorophenyl)-2-hydroxyethyl)amino)-2-methylpropyl)cyclohexyl)pivalamide hydrochloride] the same measures were “+ + +” and 25 to 50%.
For `CC(C)(C[C@H]1CC[C@@H](NC(=O)C(C)(C)C)CC1)NC[C@H](O)c1cccc(F)c1` [Example 165, N-((1S,4s)-4-(2-(((R)-2-(3-Fluorophenyl)-2-hydroxyethyl)amino)-2-methylpropyl)cyclohexyl)pivalamide hydrochloride] the same measures were “+ + +” and less than 25%.
With `O[C@@H](CNC[C@H]1CC[C@H](OCc2ccccc2)CC1)c1cncc(F)c1` [Example 31, (R)-2-((((1r,4R)-4-(Benzyloxy)cyclohexyl)methyl)amino)-1-(5-fluoropyridin-3-yl)ethan-1-ol], the Emax at 10 µM in the assay on L6-myotubes [1] was 25 to 50%; with L6-myotubes [2] it was less than 25%.
On to `CC(C)(CC[C@H]1CC[C@H](O)CC1)NC[C@H](O)c1cncc(F)c1` [Example 63, (1S,4r)-4-(3-(((R)-2-(5-Fluoropyridin-3-yl)-2-hydroxyethyl)amino)-3-methylbutyl)cyclohexan-1-ol], for which the Emax at 10 µM was 25 to 50% with L6-myotubes [1] and less than 25% in the assay on L6-myotubes [2].
As to `CC(C)(C[C@H]1CC[C@@H](C#N)CC1)NC[C@H](O)c1cccc(F)c1` [Example 129, (1S,4s)-4-(2-(((R)-2-(3-Fluorophenyl)-2-hydroxyethyl)amino)-2-methylpropyl)cyclohexane-1-carbonitrile], in the assay with L6-myotubes [1], the “Biological example 1: glucose uptake, activity compared to that of isoproterenol” value was “+ + +”. Also, the Emax at 10 µM in the assay on L6-myotubes [2] is 25 to 50%.
On the same counts, the results for `CC(C)(CCC1CCC(O)CC1)NC[C@H](O)c1ccccc1F` (stereo partly drawn) [Example 62, (1S,4r)-4-(3-(((R)-2-(2-Fluorophenyl)-2-hydroxyethyl)amino)-3-methyl-butyl)cyclohexan-1-ol] are “+ + +” and less than 25%.
For `O[C@@H](CNC[C@H]1CC[C@H](O)CC1)c1cccc(F)c1` [Example 30, (1R,4r)-4-((((R)-2-(3-Fluorophenyl)-2-hydroxyethyl)amino)methyl)-cyclohexan-1-ol], the figures for the Emax at 10 µM in the assay with L6-myotubes [1] and with L6-myotubes [2] were 25 to 50% and less than 25%, respectively.
For the compound `CC(C)(C[C@H]1CC[C@@H](NC(=O)C2CC2)CC1)NC[C@H](O)c1cccc(F)c1` [Example 166, N-((1S,4s)-4-(2-(((R)-2-(3-Fluorophenyl)-2-hydroxyethyl)amino)-2-methylpropyl)cyclohexyl)cyclopropanecarboxamide hydrochloride], the “Biological example 1: glucose uptake, activity compared to that of isoproterenol” value in the assay on L6-myotubes [1] is on record as “+ + +”. Besides, the Emax at 10 µM in the assay on L6-myotubes [2] is less than 25%.
Consider `O[C@@H](CNCCCC1CCC(OCc2ccccc2)CC1)c1cncc(F)c1` (stereo partly drawn) [Example 54, (R)-2-((3-((1r,4S)-4-(Benzyloxy)cyclohexyl)propyl)amino)-1-(5-fluoro-pyridin-3-yl)ethan-1-ol], for which the Emax at 10 µM was 25 to 50% with L6-myotubes [1] and less than 25% in the assay with L6-myotubes [2].
In the case of `O[C@@H](CNCC[C@H]1CC[C@@H](OCc2ccccc2)CC1)c1cccc(F)c1` [Example 41, (R)-2-((2-((1s,4S)-4-(Benzyloxy)cyclohexyl)ethyl)amino)-1-(3-fluoro-phenyl)ethan-1-ol], the “Biological example 1: glucose uptake, activity compared to that of isoproterenol” value with L6-myotubes [1] was “+ +”. Further, the Emax at 10 µM in the assay with L6-myotubes [2] was less than 25%.
